Measurements from ChEMBL document CHEMBL1201862, “PubChem BioAssay data set” (2004).
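Growth conditions: 96-well plates. Treatment: test compound, 48 hours, 5 concentrations. Analysis: linear interpolation between bracketing concentrations; unreached endpoints set to highest concentration. GI50 is the concentration that inhibits growth by half.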 Activity calls are given as the source filed them. Cut-off read from the data, not from the text of the source: active = GI50 up to about 1.1 µM and inactive = higher.

Assays:
Assay in all cases: growth of human tumour cells (NCI), 48 h
SF-295 = test system: SF-295
CCRF-CEM = test system: CCRF-CEM
LOX IMVI = test system: LOX IMVI
NCI-H23 = test system: NCI-H23
SN12C = test system: SN12C
SNB-75 = test system: SNB-75
IGROV-1 = test system: IGROV-1
COLO 205 = test system: COLO 205
NCI/ADR-RES = test system: NCI/ADR-RES
HCC 2998 = test system: HCC 2998
KM12 = test system: KM12
SK-MEL-2 = test system: SK-MEL-2
HT-29 = test system: HT-29
OVCAR-4 = test system: OVCAR-4
SK-MEL-5 = test system: SK-MEL-5
SW-620 = test system: SW-620
PC-3 = test system: PC-3
TK-10 = test system: TK-10
MDA-MB-231 = test system: MDA-MB-231
T47D = test system: T47D

Compound | GI50 (SF-295) | GI50 (CCRF-CEM) | GI50 (LOX IMVI) | GI50 (NCI-H23) | GI50 (SN12C) | GI50 (SNB-75) | GI50 (IGROV-1) | GI50 (COLO 205) | GI50 (NCI/ADR-RES) | GI50 (HCC 2998) | GI50 (KM12) | GI50 (SK-MEL-2) | GI50 (HT-29) | GI50 (OVCAR-4) | GI50 (SK-MEL-5) | GI50 (SW-620) | GI50 (PC-3) | GI50 (TK-10) | GI50 (MDA-MB-231) | GI50 (T47D)
CCOC(=O)C(C)NC(=O)N(C)C12CC3CC(CC(C3)C1)C2 (stereo unspecified) | 203 µM (inactive) | 138 µM (inactive) | 116 µM (inactive) | 185 µM (inactive) | 385 µM (inactive) | 77.4 µM (inactive) | 286 µM (inactive) | 140 µM (inactive) | 151 µM (inactive) | 268 µM (inactive) | 179 µM (inactive) | 169 µM (inactive) | 281 µM (inactive) | 175 µM (inactive) | 111 µM (inactive) | 218 µM (inactive) |  |  |  | 
CCOC(=O)c1csc(-c2nc(CCNC(=O)c3ccccc3)sc2Cl)n1 | > 100 µM (inactive) | 30.5 µM (inactive) |  | 40.9 µM (inactive) | > 100 µM (inactive) | 49.4 µM (inactive) | > 100 µM (inactive) | 77.3 µM (inactive) | 41.1 µM (inactive) | > 100 µM (inactive) | 69.2 µM (inactive) |  | > 100 µM (inactive) |  | 42.7 µM (inactive) | > 100 µM (inactive) | 32.1 µM (inactive) | > 100 µM (inactive) |  | 
O=C1Nc2ccccc2S/C1=C\c1cccc(C(F)(F)F)c1 | > 100 µM (inactive) | > 100 µM (inactive) | > 100 µM (inactive) |  | > 100 µM (inactive) | > 100 µM (inactive) | > 100 µM (inactive) | > 100 µM (inactive) | > 100 µM (inactive) |  | > 100 µM (inactive) | > 100 µM (inactive) | > 100 µM (inactive) | > 100 µM (inactive) | > 100 µM (inactive) | > 100 µM (inactive) | > 100 µM (inactive) | > 100 µM (inactive) | 7.85 µM (inactive) | 82.4 µM (inactive)
CSCCCCCCCCCCOc1ccc(C=C2C(=C(C#N)C#N)c3ccccc3C2=C(C#N)C#N)cc1 | 17.2 µM (inactive) | 1.32 µM (inactive) | 23.5 µM (inactive) | 22.1 µM (inactive) |  |  | 17.3 µM (inactive) |  | 29 µM (inactive) |  | 19 µM (inactive) | 20.1 µM (inactive) | 17.3 µM (inactive) | 18.3 µM (inactive) | 17.9 µM (inactive) | 17.8 µM (inactive) | 17.6 µM (inactive) | 19.4 µM (inactive) | 19.4 µM (inactive) | 21.6 µM (inactive)
CN(C)CCNc1c([N+](=O)[O-])cc2c3c(cccc13)C(=O)N(CCN(C)C)C2=O | 1.24 µM (inactive) | 0.893 µM (active) | 1.08 µM (active) | 1.78 µM (inactive) | 1.46 µM (inactive) | 1.7 µM (inactive) | 1.73 µM (inactive) | 1.11 µM (active) | 1.54 µM (inactive) | 1.53 µM (inactive) | 8.18 µM (inactive) | 1.77 µM (inactive) | 0.61 µM (active) | 0.807 µM (active) | 2.18 µM (inactive) | 0.593 µM (active) |  |  |  | 
O=C1NC(N2CCOCC2)=N/C1=C\c1ccccc1O | > 100 µM (inactive) | > 100 µM (inactive) | > 100 µM (inactive) | > 100 µM (inactive) | > 100 µM (inactive) | > 100 µM (inactive) | > 100 µM (inactive) | > 100 µM (inactive) | > 100 µM (inactive) |  | > 100 µM (inactive) | > 100 µM (inactive) | > 100 µM (inactive) | > 100 µM (inactive) | > 100 µM (inactive) | > 100 µM (inactive) | > 100 µM (inactive) | > 100 µM (inactive) | > 100 µM (inactive) | > 100 µM (inactive)
N#C/C(C(=O)Nc1ccc(Cl)cc1)=C(/N)N1CCOCC1 | > 100 µM (inactive) | > 100 µM (inactive) | > 100 µM (inactive) | > 100 µM (inactive) | > 100 µM (inactive) | 65.5 µM (inactive) | > 100 µM (inactive) | > 100 µM (inactive) | > 100 µM (inactive) | > 100 µM (inactive) | > 100 µM (inactive) | > 100 µM (inactive) | > 100 µM (inactive) |  | 74.5 µM (inactive) | > 100 µM (inactive) | > 100 µM (inactive) |  |  | > 100 µM (inactive)
CCOC1Oc2ccccc2-c2nc(N)ncc21 (stereo unspecified) | 34.1 µM (inactive) | 36.8 µM (inactive) | 27 µM (inactive) | > 100 µM (inactive) | 77.1 µM (inactive) | 34 µM (inactive) | 43.6 µM (inactive) | 57.5 µM (inactive) | 39.7 µM (inactive) |  | 39.4 µM (inactive) | > 100 µM (inactive) | 34.8 µM (inactive) | > 100 µM (inactive) | 42.8 µM (inactive) | 46.3 µM (inactive) | 41.5 µM (inactive) | 33.2 µM (inactive) | 99.3 µM (inactive) | 51.3 µM (inactive)
CC1(C)S[C@@H]2[C@H](NC(=O)CCC[C@@H](N)C(=O)O)C(=O)N2[C@H]1C(=O)O [ADICILLIN] | > 50 µM (inactive) | > 50 µM (inactive) | > 50 µM (inactive) | > 50 µM (inactive) | > 50 µM (inactive) | > 50 µM (inactive) | > 50 µM (inactive) | > 50 µM (inactive) | > 31.6 µM (inactive) | > 50 µM (inactive) | > 50 µM (inactive) | > 50 µM (inactive) | > 50 µM (inactive) | > 50 µM (inactive) | > 15 µM (inactive) | > 31.6 µM (inactive) |  |  |  | 
CCOC(=O)C1=C(c2ccccc2)C12N(Cc1ccccc1)C(=O)C2(c1ccccc1)c1ccccc1 (stereo unspecified) | 41.5 µM (inactive) | 25.8 µM (inactive) | 34.9 µM (inactive) | 39.1 µM (inactive) | 57.8 µM (inactive) |  | 56.1 µM (inactive) | 25.9 µM (inactive) |  | 28.1 µM (inactive) | 29.4 µM (inactive) | 24 µM (inactive) | 43.2 µM (inactive) |  |  | 42.2 µM (inactive) | 21.3 µM (inactive) | > 100 µM (inactive) | 29.9 µM (inactive) | 43.2 µM (inactive)
COc1ccc2nc(-c3ccc(O)cc3)sc2c1 | 19.8 µM (inactive) |  | 22.6 µM (inactive) | 20.8 µM (inactive) | 20.6 µM (inactive) |  | 19.1 µM (inactive) | 21.5 µM (inactive) | 29.8 µM (inactive) |  | 26.5 µM (inactive) | 43.4 µM (inactive) | 20 µM (inactive) | 28.5 µM (inactive) | 18.2 µM (inactive) | 21.8 µM (inactive) | 18.5 µM (inactive) | 34.7 µM (inactive) | 23 µM (inactive) | 17.5 µM (inactive)
O=[N+]([O-])c1cccc2nccc(NCCCO)c12 | 15.5 µM (inactive) | 14.7 µM (inactive) | 12.9 µM (inactive) | 12.5 µM (inactive) | 14.8 µM (inactive) | 24.3 µM (inactive) | 13.3 µM (inactive) | 3.55 µM (inactive) |  | 13.2 µM (inactive) | 10.8 µM (inactive) | 4.38 µM (inactive) | 6.89 µM (inactive) | 11 µM (inactive) | 3.9 µM (inactive) | 13.3 µM (inactive) | 20.7 µM (inactive) | 8.79 µM (inactive) | 23 µM (inactive) | 26.4 µM (inactive)
c1cc(Sc2nc(Sc3ccncc3)nc(Sc3ccncc3)n2)ccn1 | > 100 µM (inactive) | > 100 µM (inactive) | > 100 µM (inactive) | > 100 µM (inactive) | > 100 µM (inactive) |  | > 100 µM (inactive) | > 100 µM (inactive) | > 100 µM (inactive) | > 100 µM (inactive) | > 100 µM (inactive) | > 100 µM (inactive) | > 100 µM (inactive) | > 100 µM (inactive) | > 100 µM (inactive) | > 100 µM (inactive) | > 100 µM (inactive) | > 100 µM (inactive) | > 100 µM (inactive) | > 100 µM (inactive)
CC(=O)c1sc2n(C)c(=O)c3ccccc3[n+]2c1C | > 100 µM (inactive) | > 100 µM (inactive) | > 100 µM (inactive) | > 100 µM (inactive) | > 100 µM (inactive) |  | > 100 µM (inactive) | > 100 µM (inactive) | > 100 µM (inactive) | > 100 µM (inactive) | > 100 µM (inactive) | > 100 µM (inactive) | > 100 µM (inactive) | > 100 µM (inactive) | > 100 µM (inactive) | > 100 µM (inactive) | > 100 µM (inactive) | > 100 µM (inactive) | > 100 µM (inactive) | > 100 µM (inactive)
COc1ccc(N2C(=O)C3ON(C(C(N)=O)c4ccccc4)C(c4cc5ccccc5c5ccccc45)C3C2=O)cc1 (stereo unspecified) | > 50 µM (inactive) | 12.7 µM (inactive) | 24.2 µM (inactive) | 45.7 µM (inactive) | 14 µM (inactive) | 40.1 µM (inactive) | 18.4 µM (inactive) | 19.6 µM (inactive) | > 50 µM (inactive) |  | 32.3 µM (inactive) | 18.3 µM (inactive) | 18 µM (inactive) | 25.9 µM (inactive) | 19.7 µM (inactive) | 26.9 µM (inactive) | 30.7 µM (inactive) | 28.8 µM (inactive) | > 50 µM (inactive) | 28.6 µM (inactive)
COc1cc(/C=C2\CCc3ccccc3C2=O)ccc1O |  | 1.41 µM (inactive) | 15 µM (inactive) | 23 µM (inactive) | 22.4 µM (inactive) | 28.5 µM (inactive) | 34.3 µM (inactive) |  | 29.5 µM (inactive) | 5.64 µM (inactive) | 16.3 µM (inactive) |  | 18.2 µM (inactive) | 18.5 µM (inactive) | 17.7 µM (inactive) | 16.1 µM (inactive) | > 10 µM (inactive) | 18.7 µM (inactive) |  | 
